In ChEMBL document CHEMBL1201862, “PubChem BioAssay data set” (2004):
Activity calls are given as the source filed them. Cut-off read from the data, not from the text of the source, for most assays here: actives have a measured EC50 and inactives only a lower limit.

What was measured:
[1] = target: T1, Aryl hydrocarbon receptor (Homo sapiens, UniProt P35869); test: Luminescence-based cell-based high throughput dose response assay for activators of the Aryl Hydrocarbon Receptor (AHR). [Related pubchem assays: 2796 (Primary screen (AHR activators in singlicate)), 2845 (Confirmation screen (AHR activators in triplicate)), 434939 (Counterscreen (PXR activators in triplicate)), 2804 (Summary (AHR activators))]; format: ADME
T1 sequence (P35869 whole entry): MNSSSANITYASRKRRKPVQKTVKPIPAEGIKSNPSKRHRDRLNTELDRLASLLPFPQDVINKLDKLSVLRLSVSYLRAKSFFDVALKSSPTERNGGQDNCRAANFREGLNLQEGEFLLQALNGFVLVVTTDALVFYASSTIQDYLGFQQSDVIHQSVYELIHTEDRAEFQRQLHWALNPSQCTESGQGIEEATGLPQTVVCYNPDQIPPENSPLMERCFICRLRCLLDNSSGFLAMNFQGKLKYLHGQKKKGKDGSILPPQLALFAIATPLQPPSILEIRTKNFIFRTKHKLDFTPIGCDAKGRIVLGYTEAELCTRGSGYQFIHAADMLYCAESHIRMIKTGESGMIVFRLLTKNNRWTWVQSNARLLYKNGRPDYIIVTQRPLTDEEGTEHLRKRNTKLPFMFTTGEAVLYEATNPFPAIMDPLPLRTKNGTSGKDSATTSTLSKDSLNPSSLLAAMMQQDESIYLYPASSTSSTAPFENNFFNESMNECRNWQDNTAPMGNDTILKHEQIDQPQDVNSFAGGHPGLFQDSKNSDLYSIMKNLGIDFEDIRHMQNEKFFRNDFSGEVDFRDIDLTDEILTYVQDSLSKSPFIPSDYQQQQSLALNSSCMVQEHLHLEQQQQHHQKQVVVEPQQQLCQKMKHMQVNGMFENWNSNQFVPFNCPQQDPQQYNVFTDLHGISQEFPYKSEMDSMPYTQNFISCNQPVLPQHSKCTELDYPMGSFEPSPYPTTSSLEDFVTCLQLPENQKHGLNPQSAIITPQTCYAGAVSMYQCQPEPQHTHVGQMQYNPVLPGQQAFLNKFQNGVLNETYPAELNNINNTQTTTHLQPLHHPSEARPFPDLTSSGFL

BJ [2] = test: cells; format: functional, cell-based; conditions: Homo sapiens
[3] = inhibitors of intracellular T. cruzi replication, confirmation, NIH3T3 host cells, beta-gal luminescence (AID 2044); format: functional, cell-based;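 note: intracellular parasites grown in NIH/3T3 mouse fibroblasts as host cells; luminescent beta-galactosidase reporter signal from transgenic T. cruzi replicating inside host cells; inhibitors lower the luminescence signal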
BJ [4] = test: cytotoxicity toward BJ-TERT fibroblasts, dose response, cell-based, RAS-independent, luminescence (AID 1933); format: functional; conditions: Homo sapiens
[5] = inhibitors of SNCA 5'UTR-driven reporter translation, confirmation, H4 neuroglioma cells, luminescence (AID 1988); format: functional, cell-based
BJ [6] = test: cytotoxicity toward BJ-TERT-LT-ST fibroblasts, dose response, cell-based, RAS-independent, luminescence (AID 1935); format: functional; conditions: Homo sapiens;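 note: BJ fibroblasts immortalized with TERT plus LT and ST oncogenes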
[7] = cytotoxicity toward NIH3T3 fibroblasts, dose response, counter-screen, cell-based, ATP luminescence, mouse fibroblasts (AID 2010); format: functional;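 note: cells exposed to compound for about 90 hours before reading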
[8] = cytotoxicity toward DRD oncogenic fibroblasts, dose response, cell-based, non-viral oncogenic, luminescence (AID 1934); format: functional; conditions: Homo sapiens
[9] = inhibitors of firefly luciferase expression or activity, dose response, H4 neuroglioma cells, luminescence (AID 1990); format: functional, cell-based
[10] = Luminescence Cell-Based Dose Response HTS to Identify Inhibitors of 5'UTR Stem-Loop Driven Prion Protein mRNA Translation in H4 Neuroglioblastoma Cells. [Related pubchem assays: 1827 (Project Summary), 1813 (Primary HTS)]; format: functional
[11] = Luminescence-based dose response cell-based high throughput screening assay for cytotoxic compounds using the IEC-6 intestinal epithelial cell line. [Related pubchem assays: 1858 (Summary AID.), 1825 (Counterscreen.), 1907 (Confirmation screen.)]; format: functional
[12] = A cytotoxicity screen of small molecule inhibitors of the PhoP region in Salmonella typhi identified in the primary screen. [Related pubchem assays: 1850, 1864, 1985 ]; format: functional
[13] = A Cell Based Secondary Assay To Explore Cytotoxicity of Compounds that Sensitize Mycobacterium Tuberculosis to Beta-Lactam Antibiotics.; format: functional
[14] = Luminescence Cell-Based Dose Confirmation HTS to Identify Inhibitors of Polyadenylation.; format: functional
[15] = target: T2, Alkaline phosphatase, tissue-nonspecific isozyme (Homo sapiens, UniProt P05186)
T2 sequence (P05186 whole entry): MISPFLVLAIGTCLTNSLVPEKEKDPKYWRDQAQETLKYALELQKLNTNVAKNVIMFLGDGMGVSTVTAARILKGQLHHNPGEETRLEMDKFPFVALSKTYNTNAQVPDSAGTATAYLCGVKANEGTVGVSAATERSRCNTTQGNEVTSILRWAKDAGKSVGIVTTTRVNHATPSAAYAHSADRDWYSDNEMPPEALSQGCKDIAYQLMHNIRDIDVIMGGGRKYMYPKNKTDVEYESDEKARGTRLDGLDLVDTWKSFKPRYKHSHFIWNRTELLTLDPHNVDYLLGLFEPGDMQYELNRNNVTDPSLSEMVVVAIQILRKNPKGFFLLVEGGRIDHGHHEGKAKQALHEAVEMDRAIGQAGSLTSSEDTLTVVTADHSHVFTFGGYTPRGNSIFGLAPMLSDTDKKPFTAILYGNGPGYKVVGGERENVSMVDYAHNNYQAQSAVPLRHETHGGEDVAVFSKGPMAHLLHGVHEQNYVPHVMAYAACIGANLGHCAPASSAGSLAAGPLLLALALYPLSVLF

Streptococcus = test: Group A Streptococcus viability loss, dose response, counter-screen for streptokinase expression inhibitor project, luminescence, BacTiterGlo (AID 1915); format: functional, organism-based;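 note: potency for reduction of bacterial viability or growth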
Vero = Vero cell cytotoxicity, cytotoxicity control for flavivirus capping enzyme inhibitors (AID 588742); format: functional; conditions: Chlorocebus sabaeus
[16] = test system: Streptococcus sp. 'group A'; test: growth inhibition of control SK(-) GAS strain, dose response, counter-screen for streptokinase expression inhibitor project, luminescence, kanamycin, BacTiterGlo, confirmation (AID 1900); format: functional, organism-based
Genome polyprotein = Genome polyprotein (dengue virus type 2, UniProt P29990); test: Dengue-2 NS5 methyltransferase inhibitors, primary screen, biochemical, confirmation dose response (AID 588689); format: functional
Sequence of Genome polyprotein (P29990 2492-3391 limits assumed): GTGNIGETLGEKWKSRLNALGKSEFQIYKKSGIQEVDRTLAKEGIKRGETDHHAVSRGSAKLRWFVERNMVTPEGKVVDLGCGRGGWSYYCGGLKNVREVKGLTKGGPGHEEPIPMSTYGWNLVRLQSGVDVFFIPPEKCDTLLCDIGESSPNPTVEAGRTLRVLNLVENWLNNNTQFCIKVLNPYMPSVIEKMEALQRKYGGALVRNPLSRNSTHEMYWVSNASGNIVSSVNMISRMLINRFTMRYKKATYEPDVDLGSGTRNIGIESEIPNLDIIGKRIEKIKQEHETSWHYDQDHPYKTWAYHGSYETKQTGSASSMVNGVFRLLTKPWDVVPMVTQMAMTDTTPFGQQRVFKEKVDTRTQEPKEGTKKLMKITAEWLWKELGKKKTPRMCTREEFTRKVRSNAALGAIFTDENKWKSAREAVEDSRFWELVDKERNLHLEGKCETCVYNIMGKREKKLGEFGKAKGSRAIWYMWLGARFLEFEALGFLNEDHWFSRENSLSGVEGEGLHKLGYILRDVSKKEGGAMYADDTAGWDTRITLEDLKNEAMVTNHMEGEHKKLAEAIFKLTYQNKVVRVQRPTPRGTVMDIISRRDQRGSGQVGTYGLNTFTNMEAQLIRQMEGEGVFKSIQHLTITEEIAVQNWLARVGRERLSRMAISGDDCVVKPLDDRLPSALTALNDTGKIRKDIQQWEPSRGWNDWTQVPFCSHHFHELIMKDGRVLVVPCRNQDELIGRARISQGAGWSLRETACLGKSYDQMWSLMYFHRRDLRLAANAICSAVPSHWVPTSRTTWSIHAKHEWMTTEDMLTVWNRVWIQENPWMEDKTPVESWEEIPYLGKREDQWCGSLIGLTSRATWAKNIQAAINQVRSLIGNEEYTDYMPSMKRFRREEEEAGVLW

Cc1nc(Cl)sc1C(=O)Nc1ccc(C(F)(F)F)cc1
EC50 [1]: 1.57 µM (active)

Cc1ccc(-n2ncc(C(=O)Nc3cc(Cl)cc(Cl)c3)c2C2CCNCC2)cc1C
EC50 (BJ [2]): 8.6 µM (inconclusive) | EC50 [3]: 2.02 µM (active) | EC50 (BJ [4]): 3.72 µM (active) | EC50 [5]: 7.75 µM (active) | EC50 (BJ [6]): 6.96 µM (inconclusive) | EC50 [7]: > 30 µM (not active) | EC50 [8]: 5.28 µM (active) | EC50 [9]: > 120 µM (not active) | EC50 [10]: 9.16 µM (active) | IC50 [11]: 5.23 µM (active)

Clc1ccc2[nH]c(N3CCCCC3)nc2c1
EC50 [12]: > 50 µM (active)

Cc1ccc(CN2CCSc3ccc(C(=O)NC4CCN(Cc5ccccc5)CC4)cc32)cc1
CC50 [13]: > 40 µM (active) | EC50 [3]: 1.37 µM (active) | EC50 [7]: > 60 µM (not active)

O=C(N/N=C/c1ccsc1)c1cc2ccccc2o1
EC50 [14]: > 120 µM (not active)

Fc1cccc2sc(Nc3nnc(-c4ccccc4)o3)nc12
EC50 [15]: 44.2 µM (active) | EC50 (Streptococcus): 6.97 µM (active) | CC50 (Vero): 27 µM (active) | EC50 [16]: 2 µM (active) | IC50 (Genome polyprotein): 50.2 µM (active)

CC(NC(=O)CCCCCCN1C(=O)c2ccccc2C1=O)c1ccc2c(c1)CCCC2 (stereo not drawn)
EC50 [14]: > 120 µM (not active)

Cc1ccc(C2CC(=O)NC(SCCC(C)C)=C2C#N)cc1 (stereo not drawn)
EC50 [12]: > 50 µM (active)
